# Target: T1, hNPRA (Homo sapiens, UniProt P16066)
# T1 construct: expressed in transfected cells
# T1 sequence (P16066 33-1061): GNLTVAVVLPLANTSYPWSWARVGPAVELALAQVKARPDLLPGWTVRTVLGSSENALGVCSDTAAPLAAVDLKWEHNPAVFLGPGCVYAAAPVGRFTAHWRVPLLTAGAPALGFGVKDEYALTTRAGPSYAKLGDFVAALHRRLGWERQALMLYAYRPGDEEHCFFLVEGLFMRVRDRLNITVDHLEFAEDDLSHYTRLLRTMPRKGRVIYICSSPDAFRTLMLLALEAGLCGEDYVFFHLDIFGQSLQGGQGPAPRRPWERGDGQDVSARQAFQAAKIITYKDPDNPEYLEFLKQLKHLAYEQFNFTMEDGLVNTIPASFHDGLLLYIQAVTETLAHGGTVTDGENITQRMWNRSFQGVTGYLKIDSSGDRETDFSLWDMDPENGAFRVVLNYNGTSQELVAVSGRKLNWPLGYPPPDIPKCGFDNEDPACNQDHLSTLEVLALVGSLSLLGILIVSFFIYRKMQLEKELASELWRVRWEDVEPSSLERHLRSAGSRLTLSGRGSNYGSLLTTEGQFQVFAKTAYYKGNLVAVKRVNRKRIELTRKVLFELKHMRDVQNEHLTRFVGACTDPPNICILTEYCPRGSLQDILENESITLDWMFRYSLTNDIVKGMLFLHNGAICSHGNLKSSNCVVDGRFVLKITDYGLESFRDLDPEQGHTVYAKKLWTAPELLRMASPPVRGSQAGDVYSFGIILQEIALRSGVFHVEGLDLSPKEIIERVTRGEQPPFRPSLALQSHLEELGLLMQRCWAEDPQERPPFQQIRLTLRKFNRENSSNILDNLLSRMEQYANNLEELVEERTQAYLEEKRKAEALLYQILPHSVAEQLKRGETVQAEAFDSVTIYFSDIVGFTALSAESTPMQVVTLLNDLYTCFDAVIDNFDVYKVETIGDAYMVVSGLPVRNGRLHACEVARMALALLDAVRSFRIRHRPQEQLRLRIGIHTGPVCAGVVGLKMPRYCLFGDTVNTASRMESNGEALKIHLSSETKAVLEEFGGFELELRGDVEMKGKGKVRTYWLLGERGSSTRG
# Assay: NPRA Functional Cell Assay (cGMP HTRF)
# Assay type: cell-based
# Conditions: Human NPRA HEK JumpIn stable cells; cGMP by HTRF after 1 hour at 37° C.; 10-point dose response
# Summary of the method: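 HEK JumpIn cells stably expressing human, rat or dog NPRA incubated 1 hour at 37° C with compound (10-point titration) in Opti-MEM buffer with 100 uM IBMX and 100 uM RO20. cGMP measured by HTRF against an on-plate calibration curve; EC50 from 4-parameter fit, positive control 10 nM rat-ANP (rat) or 50 nM h-ANP (human, dog).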
structure (smiles),measurement,value
"CC(C)[C@]1(F)CCc2nc3c(F)cc(C(=O)N[C@H](CCN4CCC5(CCCO5)CC4)c4ccc(-c5ccnnc5)nc4)cc3cc2C1 [Example 16, (7S)-4,7-difluoro-7-(1-methylethyl)-N-[(1R)-3-(1-oxa-8-azaspiro[4.5]dec-8-yl)-1-(6-pyridazin-4-ylpyridin-3-yl)propyl]-5,6,7,8-tetrahydroacridine-2-carboxamide]",EC50,343 nM
"CC(C)[C@]1(F)CCc2nc3c(F)cc(C(=O)N[C@H](CCN4CCC5(CCO5)CC4)c4ccc(-c5ccnnc5)nc4)cc3cc2C1 [Example 17, (7S)-4,7-difluoro-7-(1-methylethyl)-N-[(1R)-3-(1-oxa-7-azaspiro[3.5]non-7-yl)-1-(6-pyridazin-4-ylpyridin-3-yl)propyl]-5,6,7,8-tetrahydroacridine-2-carboxamide]",EC50,217 nM
"COC1CCN(CC[C@@H](NC(=O)c2cc(F)c3nc4c(cc3c2)C[C@](F)(C(C)C)CC4)c2ccc(-c3ccnnc3)nc2)CC1 [Example 18, (7S)-4,7-difluoro-N-[(1R)-3-(4-methoxypiperidin-1-yl)-1-(6-pyridazin-4-ylpyridin-3-yl)propyl]-7-(1-methylethyl)-5,6,7,8-tetrahydroacridine-2-carboxamide]",EC50,147 nM
"CC(C)[C@]1(F)CCc2nc3c(F)cc(C(=O)N[C@H](CCN4CCC(O)(CO)CC4)c4ccc(-c5ccnnc5)nc4)cc3cc2C1 [Example 19, (7S)-4,7-difluoro-N-[(1R)-3-[4-hydroxy-4-(hydroxymethyl)piperidin-1-yl]-1-(6-pyridazin-4-ylpyridin-3-yl)propyl]-7-(1-methylethyl)-5,6,7,8-tetrahydroacridine-2-carboxamide]",EC50,203 nM
"CC(C)[C@]1(F)CCc2nc3c(F)cc(C(=O)N[C@H](CCN4CCC(O)CC4)c4cnc(-c5ccnnc5)c(F)c4)cc3cc2C1 [Example 20, (7S)-4,7-difluoro-N-[(1R)-1-(5-fluoro-6-pyridazin-4-ylpyridin-3-yl)-3-(4-hydroxypiperidin-1-yl)propyl]-7-(1-methylethyl)-5,6,7,8-tetrahydroacridine-2-carboxamide]",EC50,125 nM
"CN1CC(NC(=O)c2cccc([C@@H](CCN3CCC[C@H]3CO)NC(=O)c3ccc4nc5c(cc4c3)C[C@@H](C3(C)CC3)CC5)c2)C1 [Example 21, (S)-N-((R)-3-((S)-2-(hydroxymethyl)pyrrolidin-1-yl)-1-(3-((1-methylazetidin-3-yl)carbamoyl)phenyl)propyl)-7-(1-methylcyclopropyl)-5,6,7,8-tetrahydroacridine-2-carboxamide]",EC50,158 nM
"CN1CC(NC(=O)c2cccc([C@@H](CCN3CCC[C@H]3CO)NC(=O)c3ccc4nc5c(cc4c3)C[C@@H](C3(C(F)(F)F)CC3)CC5)c2)C1 [Example 22, (S)-N-((R)-3-((S)-2-(hydroxymethyl)pyrrolidin-1-yl)-1-(3-((1-methylazetidin-3-yl)carbamoyl)phenyl)propyl)-7-(1-(trifluoromethyl)cyclopropyl)-5,6,7,8-tetrahydroacridine-2-carboxamide]",EC50,278 nM
CN1CC(NC(=O)c2cccc([C@@H](CCN3CCC[C@H]3CO)NC(=O)c3ccc4nc5c(cc4c3)C[C@@H](C3(C(F)F)CC3)CC5)c2)C1 [Example 23],EC50,405 nM
"COC(=O)C1CCN(CC[C@@H](NC(=O)c2cc(F)c3nc4c(cc3c2)C[C@](F)(C(C)C)CC4)c2ccc(-c3cnc(O)c(F)c3)cc2)CC1 [Example 24, methyl 1-((R)-3-((S)-4,7-difluoro-7-isopropyl-5,6,7,8-tetrahydroacridine-2-carboxamido)-3-(4-(5-fluoro-6-hydroxypyridin-3-yl)phenyl)propyl)piperidine-4-carboxylate]",EC50,237 nM
"CC(C)[C@]1(F)CCc2nc3c(F)cc(C(=O)N[C@H](CCN4CCC(C(=O)O)CC4)c4ccc(-c5cnc(O)c(F)c5)cc4)cc3cc2C1 [Example 25, 1-((R)-3-((S)-4,7-difluoro-7-isopropyl-5,6,7,8-tetrahydroacridine-2-carboxamido)-3-(4-(5-fluoro-6-hydroxypyridin-3-yl)phenyl)propyl)piperidine-4-carboxylic acid]",EC50,167 nM
"CC(C)[C@]1(F)CCc2nc3c(F)cc(C(=O)N[C@H](CCN4CCC(O)CC4)c4ccc(NS(=O)(=O)N(C)C)nc4)cc3cc2C1 [Example 26, (S)-N-((R)-1-(6-((N,N-dimethylsulfamoyl)amino)pyridin-3-yl)-3-(4-hydroxypiperidin-1-yl)propyl)-4,7-difluoro-7-isopropyl-5,6,7,8-tetrahydroacridine-2-carboxamide]",EC50,246 nM
"CC(C)[C@]1(F)CCc2nc3c(F)cc(C(=O)N[C@H](CCN4CCC(O)CC4)c4cnc(NS(=O)(=O)N(C)C)c(F)c4)cc3cc2C1 [Example 27, (S)-N-((R)-1-(6-((N,N-dimethylsulfamoyl)amino)-5-fluoropyridin-3-yl)-3-(4-hydroxypiperidin-1-yl)propyl)-4,7-difluoro-7-isopropyl-5,6,7,8-tetrahydroacridine-2-carboxamide]",EC50,2450 nM
CC(C)[C@]1(F)CCc2nc3c(F)cc(C(=O)N[C@H](CCN4CCC(O)CC4)c4ccc(N5CC(=O)NC5=O)nc4)cc3cc2C1 [Example 28],EC50,321 nM
"CC1C(=O)NC(=O)N1c1ccc([C@@H](CCN2CCC(O)CC2)NC(=O)c2cc(F)c3nc4c(cc3c2)C[C@](F)(C(C)C)CC4)cn1 (stereo partly drawn) [Example 29, (7S)-4,7-difluoro-N-((1R)-3-(4-hydroxypiperidin-1-yl)-1-(6-(5-methyl-2,4-dioxoimidazolidin-1-yl)pyridin-3-yl)propyl)-7-isopropyl-5,6,7,8-tetrahydroacridine-2-carboxamide]",EC50,275 nM
"CC(C)[C@]1(F)CCc2nc3c(F)cc(C(=O)N[C@H](CCN4CCC(O)CC4)c4ccc(-c5cn[nH]c5)nc4)cc3cc2C1 [Example 32, (S)-N-((R)-1-(6-(1H-pyrazol-4-yl)pyridin-3-yl)-3-(4-hydroxypiperidin-1-yl)propyl)-4,7-difluoro-7-isopropyl-5,6,7,8-tetrahydroacridine-2-carboxamide]",EC50,217 nM
"CC(C)[C@]1(F)CCc2nc3c(F)cc(C(=O)N[C@H](CCN4CCC(O)CC4)c4ccc(N5CC[C@@H](O)[C@H](F)C5)nc4)cc3cc2C1 [Example 33, (S)-4,7-difluoro-N-((R)-1-(6-((3R,4R)-3-fluoro-4-hydroxypiperidin-1-yl)pyridin-3-yl)-3-(4-hydroxypiperidin-1-yl)propyl)-7-isopropyl-5,6,7,8-tetrahydroacridine-2-carboxamide]",EC50,871 nM
"CC(C)[C@]1(F)CCc2nc3c(F)cc(C(=O)N[C@H](CCN4CCC(O)CC4)c4ccc(N5CC6CCC5CO6)nc4)cc3cc2C1 (stereo partly drawn) [Example 34, (7S)-N-((1R)-1-(6-(2-oxa-5-azabicyclo[2.2.2]octan-5-yl)pyridin-3-yl)-3-(4-hydroxypiperidin-1-yl)propyl)-4,7-difluoro-7-isopropyl-5,6,7,8-tetrahydroacridine-2-carboxamide]",EC50,2840 nM

# Reference: US20220281886A1, “NATRIURETIC PEPTIDE RECEPTOR A AGONISTS USEFUL FOR THE TREATMENT OF CARDIOMETABOLIC DISEASES, KIDNEY DISEASE AND DIABETES” (Merck Sharp & Dohme Corp., priority 2019, published 2022)
